Legend:
Experiment in all cases: split-luciferase competition binding
AKT1 (human) = AKT1 (human) (UniProt P31749); conditions: compound 10.0 µM
AKT2 (human) = AKT2 (human) (UniProt P31751); conditions: compound 10.0 µM
AKT3 (human) = AKT3 (human) (UniProt Q9Y243); conditions: compound 10.0 µM
AURKA (human) = AURKA (human) (UniProt O14965); conditions: compound 10.0 µM
AURKB (human) = AURKB (human) (UniProt Q96GD4); conditions: compound 10.0 µM
AURKC (human) = AURKC (human) (UniProt Q9UQB9); conditions: compound 10.0 µM
DMPK (human) = DMPK (human) (UniProt Q09013); conditions: compound 10.0 µM
PDPK1 (human) = PDPK1 (human) (UniProt O15530); conditions: compound 10.0 µM
PKN1 (human) = PKN1 (human) (UniProt Q16512); conditions: compound 10.0 µM
PRKACA (mouse) = conditions: compound 10.0 µM; accession and sequence are those of the human protein
PRKACB (human) = PRKACB (human) (UniProt P22694); conditions: compound 10.0 µM
PRKCD (human) = PRKCD (human) (UniProt Q05655); conditions: compound 10.0 µM
PRKCE (human) = PRKCE (human) (UniProt Q02156); conditions: compound 10.0 µM
PRKCG (human) = PRKCG (human) (UniProt P05129); conditions: compound 10.0 µM
PRKCH (human) = PRKCH (human) (UniProt P24723); conditions: compound 10.0 µM
PRKCI (human) = PRKCI (human) (UniProt P41743); conditions: compound 10.0 µM
PRKCQ (human) = PRKCQ (human) (UniProt Q04759); conditions: compound 10.0 µM
PRKX (human) = PRKX (human) (UniProt P51817); conditions: compound 10.0 µM
RPS6KA1 KD1 (human) = RPS6KA1 KD1 (human) (UniProt Q15418); conditions: compound 10.0 µM
RPS6KA2 KD1 (human) = RPS6KA2 KD1 (human) (UniProt Q15349); conditions: compound 10.0 µM
RPS6KA3 KD1 (human) = RPS6KA3 KD1 (human) (UniProt P51812); conditions: compound 10.0 µM
RPS6KA4 KD1 (human) = RPS6KA4 KD1 (human) (UniProt O75676); conditions: compound 10.0 µM
RPS6KA5 KD1 (human) = RPS6KA5 KD1 (human) (UniProt O75582); conditions: compound 10.0 µM
RPS6KA6 KD1 (human) = RPS6KA6 KD1 (human) (UniProt Q9UK32); conditions: compound 10.0 µM
SGK2 (human) = SGK2 (human) (UniProt Q9HBY8); conditions: compound 10.0 µM
SGK3 (human) = SGK3 (human) (UniProt Q96BR1); conditions: compound 10.0 µM
STK32B (human) = STK32B (human) (UniProt Q9NY57); conditions: compound 10.0 µM

Sequence of RPS6KA6 KD1 (human) (Q9UK32 whole entry, looked up): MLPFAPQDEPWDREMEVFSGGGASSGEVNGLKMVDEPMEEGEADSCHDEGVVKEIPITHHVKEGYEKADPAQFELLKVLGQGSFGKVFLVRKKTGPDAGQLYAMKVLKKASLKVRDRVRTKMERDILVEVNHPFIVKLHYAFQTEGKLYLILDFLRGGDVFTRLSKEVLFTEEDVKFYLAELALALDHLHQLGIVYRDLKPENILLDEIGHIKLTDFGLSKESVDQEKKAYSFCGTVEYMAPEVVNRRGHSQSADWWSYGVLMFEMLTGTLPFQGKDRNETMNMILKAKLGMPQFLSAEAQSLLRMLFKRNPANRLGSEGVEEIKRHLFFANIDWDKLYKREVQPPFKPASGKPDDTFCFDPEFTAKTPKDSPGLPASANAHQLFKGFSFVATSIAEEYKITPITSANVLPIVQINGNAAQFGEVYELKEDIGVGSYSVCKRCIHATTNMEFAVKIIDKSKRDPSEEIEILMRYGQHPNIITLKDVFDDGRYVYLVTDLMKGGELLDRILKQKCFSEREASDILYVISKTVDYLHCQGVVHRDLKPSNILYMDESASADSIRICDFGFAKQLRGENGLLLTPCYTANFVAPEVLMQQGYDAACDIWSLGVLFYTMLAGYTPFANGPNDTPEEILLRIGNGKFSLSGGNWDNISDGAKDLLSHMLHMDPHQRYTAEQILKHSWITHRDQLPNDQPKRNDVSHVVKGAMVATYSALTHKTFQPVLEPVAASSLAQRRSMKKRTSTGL
Sequence of AURKB (human) (Q96GD4 whole entry, looked up): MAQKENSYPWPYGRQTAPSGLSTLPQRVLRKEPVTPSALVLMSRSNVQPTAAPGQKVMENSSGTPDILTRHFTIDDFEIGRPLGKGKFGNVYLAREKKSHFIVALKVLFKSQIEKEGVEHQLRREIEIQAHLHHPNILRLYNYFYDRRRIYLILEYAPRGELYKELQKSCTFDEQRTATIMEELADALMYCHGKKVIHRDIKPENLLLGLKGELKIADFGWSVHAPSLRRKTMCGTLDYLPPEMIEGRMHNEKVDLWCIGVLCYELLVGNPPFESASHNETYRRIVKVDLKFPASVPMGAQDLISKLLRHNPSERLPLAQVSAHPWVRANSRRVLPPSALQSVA
Sequence of PKN1 (human) (Q16512 whole entry, looked up): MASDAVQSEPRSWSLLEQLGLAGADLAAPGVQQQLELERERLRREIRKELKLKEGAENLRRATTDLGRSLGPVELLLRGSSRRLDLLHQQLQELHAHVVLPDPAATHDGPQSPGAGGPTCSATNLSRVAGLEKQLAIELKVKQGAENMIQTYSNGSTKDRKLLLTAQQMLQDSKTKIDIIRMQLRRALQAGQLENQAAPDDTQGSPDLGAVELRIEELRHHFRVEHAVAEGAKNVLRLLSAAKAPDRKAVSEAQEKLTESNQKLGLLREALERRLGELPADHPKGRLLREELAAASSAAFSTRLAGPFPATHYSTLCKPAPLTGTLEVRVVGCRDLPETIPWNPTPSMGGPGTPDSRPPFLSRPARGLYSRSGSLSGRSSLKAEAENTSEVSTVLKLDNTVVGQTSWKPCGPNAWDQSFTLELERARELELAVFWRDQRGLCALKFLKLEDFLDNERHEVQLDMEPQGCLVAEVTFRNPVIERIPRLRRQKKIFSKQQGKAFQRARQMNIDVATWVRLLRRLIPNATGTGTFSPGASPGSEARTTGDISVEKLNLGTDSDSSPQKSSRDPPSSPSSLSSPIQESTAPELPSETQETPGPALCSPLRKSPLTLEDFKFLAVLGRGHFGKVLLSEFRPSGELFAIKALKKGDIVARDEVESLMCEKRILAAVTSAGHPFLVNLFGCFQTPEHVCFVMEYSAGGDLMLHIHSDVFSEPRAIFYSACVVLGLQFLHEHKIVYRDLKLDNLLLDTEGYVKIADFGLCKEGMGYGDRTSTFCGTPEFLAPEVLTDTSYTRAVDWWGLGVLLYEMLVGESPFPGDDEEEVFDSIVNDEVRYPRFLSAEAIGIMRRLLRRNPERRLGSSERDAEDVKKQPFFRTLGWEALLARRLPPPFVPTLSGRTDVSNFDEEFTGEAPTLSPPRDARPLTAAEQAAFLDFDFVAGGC
Sequence of AURKC (human) (Q9UQB9 whole entry, looked up): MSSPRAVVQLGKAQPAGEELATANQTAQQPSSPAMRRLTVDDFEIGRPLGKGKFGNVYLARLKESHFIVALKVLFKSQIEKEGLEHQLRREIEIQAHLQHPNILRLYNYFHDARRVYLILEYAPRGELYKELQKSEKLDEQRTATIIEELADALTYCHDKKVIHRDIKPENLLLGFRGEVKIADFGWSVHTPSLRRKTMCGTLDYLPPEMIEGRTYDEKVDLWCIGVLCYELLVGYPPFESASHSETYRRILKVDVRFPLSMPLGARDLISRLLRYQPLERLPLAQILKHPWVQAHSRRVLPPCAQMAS
Sequence of PRKCQ (human) (Q04759 whole entry, looked up): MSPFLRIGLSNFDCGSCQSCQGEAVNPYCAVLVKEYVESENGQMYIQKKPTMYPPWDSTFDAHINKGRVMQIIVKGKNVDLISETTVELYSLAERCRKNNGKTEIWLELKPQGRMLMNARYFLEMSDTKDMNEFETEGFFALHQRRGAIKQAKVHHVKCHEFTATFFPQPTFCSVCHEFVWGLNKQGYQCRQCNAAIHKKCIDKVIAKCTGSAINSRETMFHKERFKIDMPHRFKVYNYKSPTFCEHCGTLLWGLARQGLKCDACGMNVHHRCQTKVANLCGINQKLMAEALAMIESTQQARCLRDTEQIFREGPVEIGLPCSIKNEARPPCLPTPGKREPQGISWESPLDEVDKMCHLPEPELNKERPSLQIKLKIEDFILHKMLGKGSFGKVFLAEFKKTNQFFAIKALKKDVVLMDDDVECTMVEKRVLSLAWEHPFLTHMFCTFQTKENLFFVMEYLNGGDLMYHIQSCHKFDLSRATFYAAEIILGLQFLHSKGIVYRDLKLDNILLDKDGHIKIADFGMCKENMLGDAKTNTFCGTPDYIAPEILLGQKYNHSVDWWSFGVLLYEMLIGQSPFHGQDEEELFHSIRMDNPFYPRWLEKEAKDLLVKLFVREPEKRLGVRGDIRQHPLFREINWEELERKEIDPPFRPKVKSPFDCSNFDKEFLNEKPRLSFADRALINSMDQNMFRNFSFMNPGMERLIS
Sequence of PRKCE (human) (Q02156 whole entry, looked up): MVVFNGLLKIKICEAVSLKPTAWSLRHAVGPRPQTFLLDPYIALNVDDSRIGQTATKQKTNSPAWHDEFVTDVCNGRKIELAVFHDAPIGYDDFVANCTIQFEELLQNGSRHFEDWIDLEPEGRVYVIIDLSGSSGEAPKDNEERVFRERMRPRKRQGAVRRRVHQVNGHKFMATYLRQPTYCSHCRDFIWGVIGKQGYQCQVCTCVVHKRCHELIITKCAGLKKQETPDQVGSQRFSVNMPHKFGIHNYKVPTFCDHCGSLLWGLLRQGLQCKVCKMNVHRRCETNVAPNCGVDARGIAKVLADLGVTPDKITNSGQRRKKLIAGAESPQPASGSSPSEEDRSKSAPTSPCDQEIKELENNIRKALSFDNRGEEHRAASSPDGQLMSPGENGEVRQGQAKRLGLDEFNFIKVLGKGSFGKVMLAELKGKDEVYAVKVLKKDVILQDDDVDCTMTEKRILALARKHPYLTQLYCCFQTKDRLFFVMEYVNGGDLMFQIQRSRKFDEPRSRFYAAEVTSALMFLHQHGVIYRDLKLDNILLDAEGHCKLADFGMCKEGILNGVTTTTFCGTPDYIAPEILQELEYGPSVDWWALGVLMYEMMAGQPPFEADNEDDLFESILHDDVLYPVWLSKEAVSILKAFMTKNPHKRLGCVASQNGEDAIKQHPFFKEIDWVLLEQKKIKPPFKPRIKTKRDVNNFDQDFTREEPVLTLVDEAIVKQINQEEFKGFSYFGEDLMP
Sequence of SGK2 (human) (Q9HBY8 whole entry, looked up): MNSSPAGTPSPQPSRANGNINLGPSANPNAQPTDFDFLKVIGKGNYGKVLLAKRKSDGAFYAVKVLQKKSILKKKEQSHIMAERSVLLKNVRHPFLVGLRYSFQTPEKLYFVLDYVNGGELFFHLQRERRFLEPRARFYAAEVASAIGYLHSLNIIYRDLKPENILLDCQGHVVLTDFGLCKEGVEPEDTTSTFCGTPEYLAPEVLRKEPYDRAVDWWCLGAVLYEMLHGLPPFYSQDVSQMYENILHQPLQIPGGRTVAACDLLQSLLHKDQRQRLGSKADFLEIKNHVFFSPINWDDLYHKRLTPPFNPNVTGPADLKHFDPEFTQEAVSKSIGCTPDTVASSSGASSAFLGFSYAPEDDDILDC
Sequence of AURKA (human) (O14965 whole entry, looked up): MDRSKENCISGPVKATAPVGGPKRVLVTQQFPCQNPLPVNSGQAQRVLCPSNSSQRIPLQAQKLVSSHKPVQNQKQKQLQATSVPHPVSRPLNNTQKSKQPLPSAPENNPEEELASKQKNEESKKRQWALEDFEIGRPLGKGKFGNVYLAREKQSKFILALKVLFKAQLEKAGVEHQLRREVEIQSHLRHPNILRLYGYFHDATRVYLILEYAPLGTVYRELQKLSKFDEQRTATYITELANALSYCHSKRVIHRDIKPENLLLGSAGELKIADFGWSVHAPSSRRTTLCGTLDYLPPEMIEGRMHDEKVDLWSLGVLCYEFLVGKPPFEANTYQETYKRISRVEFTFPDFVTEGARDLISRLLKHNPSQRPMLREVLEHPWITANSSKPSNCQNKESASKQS
Sequence of PRKX (human) (P51817 whole entry, looked up): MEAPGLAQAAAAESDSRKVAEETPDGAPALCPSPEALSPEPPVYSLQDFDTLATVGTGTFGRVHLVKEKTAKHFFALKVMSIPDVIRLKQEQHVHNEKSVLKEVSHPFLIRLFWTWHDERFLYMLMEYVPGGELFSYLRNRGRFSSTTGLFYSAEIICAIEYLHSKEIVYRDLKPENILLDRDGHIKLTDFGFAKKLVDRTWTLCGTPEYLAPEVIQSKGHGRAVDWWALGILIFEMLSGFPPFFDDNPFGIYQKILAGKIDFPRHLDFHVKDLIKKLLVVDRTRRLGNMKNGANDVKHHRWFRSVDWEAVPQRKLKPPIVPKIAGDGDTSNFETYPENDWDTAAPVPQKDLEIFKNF

Row | Structure (SMILES) | inhibition (AKT1 (human)) | inhibition (AKT2 (human)) | inhibition (AKT3 (human)) | inhibition (AURKA (human)) | inhibition (AURKC (human)) | inhibition (DMPK (human)) | inhibition (PDPK1 (human)) | inhibition (PKN1 (human)) | inhibition (PRKACA (mouse)) | inhibition (PRKACB (human)) | inhibition (PRKCD (human)) | inhibition (PRKCE (human)) | inhibition (PRKCG (human)) | inhibition (PRKCH (human)) | inhibition (PRKCI (human)) | inhibition (PRKCQ (human)) | inhibition (PRKX (human)) | inhibition (RPS6KA1 KD1 (human)) | inhibition (RPS6KA2 KD1 (human)) | inhibition (RPS6KA3 KD1 (human)) | further results
1 | N#C/C(=C\c1ccc(O)c(O)c1)C(=O)NCc1ccccc1 | 0% | 0% | 0% | 0% | 10% | 0% | 0% | 0% | 3% | 0% | 2% | 0% | 0% | 0% | 0% | 0% | 0% | 0% | 0% | 0% | inhibition (AURKB (human)): 0%; inhibition (RPS6KA4 KD1 (human)): 0%; inhibition (RPS6KA5 KD1 (human)): 0%; inhibition (RPS6KA6 KD1 (human)): 0%; inhibition (SGK2 (human)): 0%; inhibition (SGK3 (human)): 0%; inhibition (STK32B (human)): 0%
2 | O=C(NC(NC(=S)Nc1ccc(F)c([N+](=O)[O-])c1)C(Cl)(Cl)Cl)C(c1ccccc1)c1ccccc1 (stereo unspecified) | 5% | 0% | 0% | 0% | 3% | 0% | 0% | 0% | 0% | 7% | 0% | 16% | 15% | 7% | 0% | 0% | 4% | 2% | 2% | 0% | inhibition (AURKB (human)): 0%; inhibition (RPS6KA4 KD1 (human)): 0%; inhibition (RPS6KA5 KD1 (human)): 2%; inhibition (RPS6KA6 KD1 (human)): 4%; inhibition (SGK2 (human)): 3%; inhibition (SGK3 (human)): 0%; inhibition (STK32B (human)): 8%
3 | N#CC(=C(\N)Sc1ccccc1N)/C(C#N)=C(/N)Sc1ccccc1N | 0% | 0% | 0% | 0% | 0% | 0% | 0% | 0% | 0% | 0% | 0% | 0% | 0% | 0% | 3% | 0% | 0% | 0% | 0% | 0% | inhibition (AURKB (human)): 0%; inhibition (RPS6KA4 KD1 (human)): 0%; inhibition (RPS6KA5 KD1 (human)): 0%; inhibition (RPS6KA6 KD1 (human)): 0%; inhibition (SGK2 (human)): 0%; inhibition (SGK3 (human)): 0%; inhibition (STK32B (human)): 0%
4 | CS(=O)(=O)CCNCc1nc(-c2ccc3ncnc(Nc4ccc(OCc5cccc(F)c5)c(Cl)c4)c3c2)cs1 | 16% | 0% | 0% | 13% | 21% | 5% | 0% | 0% | 8% | 5% | 0% | 14% | 10% | 6% | 0% | 0% | 7% | 14% | 0% | 0% | inhibition (AURKB (human)): 0%; inhibition (RPS6KA4 KD1 (human)): 6%; inhibition (RPS6KA5 KD1 (human)): 0%; inhibition (RPS6KA6 KD1 (human)): 5%; inhibition (SGK2 (human)): 11%; inhibition (SGK3 (human)): 6%; inhibition (STK32B (human)): 9%
5 | Cc1cc2nc3c(=O)[nH]c(=O)nc-3n(C)c2cc1C=O | 24% | 0% | 0% | 5% | 12% | 0% | 0% | 0% | 11% | 21% | 31% | 13% | 9% | 8% | 0% | 5% | 2% | 0% | 8% | 0% | inhibition (AURKB (human)): 3%; inhibition (RPS6KA4 KD1 (human)): 0%; inhibition (RPS6KA5 KD1 (human)): 8%; inhibition (RPS6KA6 KD1 (human)): 1%; inhibition (SGK2 (human)): 3%; inhibition (SGK3 (human)): 0%; inhibition (STK32B (human)): 18%
6 | COc1cc2ncn(-c3cc(OCc4ccccc4C(F)(F)F)c(C(N)=O)s3)c2cc1OC | 12% | 0% | 0% | 2% | 28% | 18% | 2% | 4% | 14% | 12% | 4% | 12% | 10% | 0% | 0% | 23% | 11% | 10% | 30% | 27% | inhibition (RPS6KA4 KD1 (human)): 14%; inhibition (RPS6KA5 KD1 (human)): 0%; inhibition (RPS6KA6 KD1 (human)): 59%; inhibition (SGK2 (human)): 4%; inhibition (SGK3 (human)): 0%; inhibition (STK32B (human)): 15%

From the kinase profiling compilation of Christmann-Franck et al. (2016)
